Data set [1] relates to basophiles in the blood of a pollenosis sufferer. The experiment in a line: emission of histamine from basophiles in the blood of a pollenosis sufferer. It counts as cell-based, human. The protocol:
Blood sampling from a pollenosis sufferer was carried out, and basophiles recognized by a cell surface marker were separated by means of a magnet method. Then, the basophiles thus separated were exposed to a pollen extraction component fixed onto a micro plate, and emitted histamine was quantitatively measured by an absorbance method through a coloring reaction making use of antihistamic antibodies (HRT by Shionogi & Co., Ltd.).
A control sample making use of only a buffering solution, a sample comprising a pectin-containing buffering solution, and a nucleic acid-containing sample were prepared, and the rate of liberation of histamine with respect to the increase of allergen was comparatively examined. In the experiment, a cedar pollen extraction antigen was used as an allergen.

Data set [2] has as its system neuraminidase of the type A influenza virus. The experiment in a line: enzymatic activity of influenza-virus neuraminidase (synthetic coloring substrate). It counts as biochemical. The protocol: The activity of neuraminidase of the type A influenza virus was analyzed by an enzymic reaction with a synthetic coloring substrate (Gene Stat Flu Kit by Nichirei). This enzymic reaction is based on the power of neuraminidase to cut acetyl neuraminic, and darker solution's blue-coloring result indicates higher enzymatic activity.
A virus test body, taken from the larynx of a type A influenza infected patient, was divided into two sample pieces, i.e., a control sample and a sample used for the evaluation of the anti-enzyme activity of pectins.

The subject of data set [3] is Japan cedar pollen. The experiment in a line: Assay of pollen enclosure (pollen rouleaux formation / pollen aggregation). The protocol:
In order to assay the actions of pectin and nucleic acid, contained in the contact preventive biological preparation of the present invention, on pollen, the following experiments were carried out. In the following experiments, by “pollen rouleaux formation” is meant a state in which a plurality of pollen particles continue linearly, and by “pollen aggregation” is meant a state in which a plurality of pollen particles constitute a bulk. Both “pollen rouleaux formation” and “pollen aggregation” denote a state in which pollen particles are captured by a medium and their free movement is inhibited, and as the degree thereof increases, the power of enclosing pollen increases.
Japan cedar pollen was put in a first water solution containing pectin (#168-00555 by Wako Pure Chemical Industries, Ltd.), in a second water solution containing glycerin, in a third water solution containing pectin and glycerin, and in a fourth water solution containing DNA (DN-JA0904, DK-JB0218 by Daiwa Fine Chemical Co. Ltd.), RNA (R6625 by Sigma), amino acid, and glycerin, and these water solutions were subjected to incubation for ten minutes at room temperature to prepare pollen developed liquids.
Each pollen developed liquid was instilled in the form of a drop onto a slide glass and was allowed to stand. After being dried, the test sample was stained by means of a ruthenium red solution and a gentian violet alcohol solution, and the assay of pollen rouleaux formation was examined microscopically.
In order to comparatively examine the actions of enclosing pollen by pectins, uronic acid-containing substances, and mucopolysaccharides according to the present invention, the following twelve kinds of samples were examined in the same way as the first exemplary embodiment. The twelve samples were: YM115-H; LM101-AS; Type DF; SLENDID type 100; SLENDID type 200; LM104AS-FS; LM-SCS; USP-H; USP-L; LH-105AS; AS Confectionary; and YM150-LJ by Genu.

The nature of data set [4]: Application testing of eyedrop and nosedrop biological preparations on pollenosis sufferer. It counts as in vivo, human. The procedure:
The contact preventive biological preparation according to the present invention was applied to eyedrop and nosedrop biological preparations and their application tests were carried out on test subjects. These eyedrop and nosedrop biological preparations according to the present exemplary embodiment contain therein pectin (type DF et cetera by Genu) and DNA (Daiwa Fine Chemical Co. Ltd.) at the following contents.
The content of pectin and the content of DNA are: pectin (0.03 to 1.0%); DNA (0.05 to 1.0%); 0.5% pectin+0.5% DNA; 0.8% pectin+0.2% DNA; and 0.2% pectin+0.8% DNA.
Pollenosis sufferers were test subjects, and the degree of improvement in itching symptom when each eyedrop biological preparation was administrated at the time of the development of an allergic reaction and its duration and application (use) feeling (the degree of uncomfortable feeling) were examined. The results thus obtained were evaluated according to the following evaluation standards.

Data set [5] can be described thus: Comparison in action with commercially available eyedrop and nosedrop biological preparations. Also on record: species or system human. The note with it: in vivo. From the text: Conventional, commercially available eyedrop and nosedrop biological preparations against pollenosis symptoms were compared with the biological preparations according to the present invention in the action with respect to the manifestation of pollenosis symptoms.
The commercially available nosedrop biological preparations contain a vasopressor agent, an antihistamic agent, a bactericidal substance, a fragrant material et cetera.

Data set [6] relates to pollenosis sufferer's white blood cells. The experiment in a line: in vitro cluster formation by pollenosis sufferer's white blood cells and pollen. It counts as cell-based, human. The following applies: pollen dispersed in 0.3% pectin water solution. The protocol: White blood cells separated from the blood of a pollenosis sufferer was subjected to incubation on a slide glass with cedar pollen fixed thereonto.

For data set [7], the system named is Japan cedar pollen. The experiment in a line: Assay of pollen enclosure (pollen rouleaux formation / pollen aggregation). The following applies: in biological preparations (artificial tears, nose spray, mouth washer) and drug solutions.
For data set [8] the following is noted: after ingestion versus before ingestion; cited from earlier work.

For the molecule pectin, the “effect of preventing the liberation of histamine” value in data set [1] (0.03% pectin alone, FIG. 2) is reported as “impossible for a 0.03% pectin-containing sample alone to provide a satisfactory effect”. Also, the “liberation of histamine from basophiles” value was “inhibited over a wide range” in data set [1] (0.03% pectin, cedar pollen extraction antigen, FIG. 1) and “inhibited” in data set [1] (pectin about 0.1% to about 0.3%, high-concentration cedar pollen). Also, in data set [2] (0.05% pectin (USD-H by Genu)), the “neuraminidase enzymatic activity (blue color reaction)” value is “no color reaction was observed”. In addition, the pollen rouleaux formation entry with Japan cedar pollen [3] (no pectin or pectin at a low concentration of less than 0.3%) is given as “no rouleaux capture of cedar pollen was detected”; in the data set with Japan cedar pollen [3] (pectin from about 0.03 to about 3.0%), “pollen rouleaux formation was promoted”. Besides, the “curative properties against the symptoms” value in data set [4] (eyedrop, FIG. 3, 0.5% pectin or 0.5% DNA) is “obvious curative properties against the symptoms”. Further, in data set [4] (eyedrops of a pectin concentration of 0.5% or more), the application feeling result is listed as “caused a sticky feeling”. Moreover, the “curative properties against pollenosis symptoms (itching and snuffles)” value in data set [4] (pectin from 0.03 to 1%, used alone) is listed as “curative properties against pollenosis symptoms”. In addition, the “irritation / sensation on application” value in data set [5] was “felling of drying”. Also, in data set [6], the “accumulation of white blood cells on pollen” value is listed as “no tendency to accumulate on pollen”. For the same molecule, the “pollen enclosing function of pectin in presence of other components” value in the data set on Japan cedar pollen [7] was “exerted satisfactorily without any interference”.
With carboxymethyl cellulose, in the data set with Japan cedar pollen [3], the “effect of additive on the pollen enclosing action of pectin” value (“effect of additive” for short) is listed as “reinforced”.
On to heparin [reference compound], for which, in data set [2] (heparin 20 unit/ml), the “neuraminidase enzymatic activity (blue color reaction)” value was “color exhibition of blue coloring became dull”.
Turning to apple pectin, the “drop of concentration of histamine in the blood” value in data set [8] is 24%.
As to `OB(O)O` [boric acid], in the data set with Japan cedar pollen [3], the “effect on pollen aggregation / dispersion” value is “promoted the aggregation of pollen” and the pollen burst result is reported as “causing pollen to burst”.
Turning to “carrageenan [carrageenan (K-100J), reference compound]”, the pollen enclosing power result in the data set with Japan cedar pollen [3] (comparison of samples, same way as first exemplary embodiment) is listed as “less significant in pollen enclosing power than the others”.
For the molecule cluster dextrin, in the data set on Japan cedar pollen [3], the “effect of additive” value is recorded as “reinforced”.
For the molecule `N[C@@H](CCC(=O)O)C(=O)O` [glutamic acid], in the data set with Japan cedar pollen [3], the “effect of additive” value was “reinforce the action of enclosing pollen by pectin”.
Still for that read-out and setting: under methyl cellulose stands “reinforced”; under `OC[C@H]1O[C@H](O[C@H]2O[C@H](CO)[C@@H](O)[C@H](O)[C@H]2O)[C@H](O)[C@@H](O)[C@@H]1O` [trehalose], “reinforced”.

Source of the values: patent publication US20140350092A1, “METHOD FOR […] VIRUS INFECTION” (Natura Corporation, priority 2003, published 2014).
